# Where two headings read alike, the source gives them in different places.
# Assays:
# [1] = test system: ARE-driven luciferase activity in AREc32 cells; assay: Induction of ARE-driven luciferase activity in stable AREc32 reporter cells; type: cell-based, human; conditions: for CD, concentration of inducting agent that doubled luciferase reporter activity: DMSO set at 1; for induction of luciferase activity after BSO pre-treatment: 50 μM BSO 24 h, then 10 μM cisplatin, 20 μM melphalan, 100 μM BCNU or 100 μM chlorambucil 24 h; for effect of BSO pre-treatment on luciferase activity: 50 μM BSO 24 h before drug, data not shown; for Fold increase (luciferase activity relative to control value): concentration of each drug given in column Conc., mean ± S.D.
# [2] = test system: AKR1C mRNA in AREc32 cells; assay: AKR1C mRNA in AREc32 cells (TaqMan); conditions: without pre-treatment with BSO; 24 h
# [3] = test system: ARE-driven luciferase activity in AREc32 cells; assay: Antagonism of induced ARE-driven luciferase activity in AREc32 cells; type: cell-based, human; conditions: 5 mM NAC; BSO pre-treated cells; cisplatin, melphalan, chlorambucil, BCNU
# [4] = AREc32, 24 h, grouping of drugs by effect on luciferase activity
SMILES,"CD, concentration of inducting agent that doubled luciferase reporter activity ([1]; AREc32, 24 h)","Type of modulation [1, 4]","effect on luciferase activity in AREc32 cells (in words) ([1]; 24 h, sub-lethal doses, no BSO)",further results
CCOc1ccc2ccc(=O)oc2c1 [7-ethoxycoumarin],100 µM,–,–,–
C=CC=O [Acrolein],2 µM,Strong inducer,–,increase in luciferase activity ([1]; 10 μM acrolein): 27 fold
COc1ccc(O)c(C(C)(C)C)c1 [BHA],20 µM,–,–,–
O=C(O)CCCc1ccc(N(CCCl)CCCl)cc1 [Chlorambucil],–,Weak inducers,weak inducers,mRNA level of AKR1C (in words) [2]: only slightly increased
N.N.[Cl][Pt][Cl] [Cisplatin],–,Weak inducers,–,induction of luciferase activity after BSO pre-treatment [1]: 3 fold; mRNA level of AKR1C (in words) [2]: only slightly increased
O=P1(N(CCCl)CCCl)NCCCO1 (stereo not drawn) [Cyclophosphamide],–,–,–,Type of modulation [1]: Inactive; effect on luciferase activity in AREc32 cells (in words) [1]: did not have any effect
COc1cccc2c1C(=O)c1c(O)c3c(c(O)c1C2=O)C[C@@](O)(C(=O)CO)C[C@@H]3O[C@H]1C[C@H](N)[C@H](O)[C@H](C)O1 [Doxorubicin],–,Inactive,no effect,–
COc1cccc2c1C(=O)c1c(O)c3c(c(O)c1C2=O)C[C@@](O)(C(=O)CO)C[C@@H]3O[C@H]1C[C@H](N)[C@@H](O)[C@H](C)O1 [Epirubicin],–,Inactive,no effect,–
CCOc1ccc2c(c1)C(C)=CC(C)(C)N2 [Ethoxyquin],5 µM,–,–,–
"COc1cc([C@@H]2c3cc4c(cc3[C@@H](O[C@@H]3O[C@@H]5CO[C@@H](C)O[C@H]5[C@H](O)[C@H]3O)[C@H]3COC(=O)[C@H]23)OCO4)cc(OC)c1O [Etopside, etoposide]",–,Weak inducers,modestly increased,"effect of BSO pre-treatment on luciferase activity [1]: did not change luciferase activity significantly; Fold increase (luciferase activity relative to control value) ([1]; AREc32, 24 h): 1.3 ± 0.07"
OO [H2O2],300 µM,–,–,–
OCc1c[nH]c2ccccc12 [I3C],20 µM,–,–,–
COS(C)(=O)=O [MMS],100 µM,–,–,–
"N[C@@H](Cc1ccc(N(CCCl)CCCl)cc1)C(=O)O [Mephalan, melphalan]",–,Weak inducers,–,"induction of luciferase activity after BSO pre-treatment [1]: 5 fold; effect on luciferase activity in AREc32 cells (in words) ([1]; 24 h, sub-lethal doses, no BSO, listed as melphalan): weak inducers; effect on luciferase activity in AREc32 cells (in words) ([1]; 24 h, sub-lethal doses, no BSO, listed as mephalan): modestly increased; Fold increase (luciferase activity relative to control value) ([1]; AREc32, 24 h): 1.3 ± 0.06; mRNA level of AKR1C (in words) [2]: only slightly increased"
CN(Cc1cnc2nc(N)nc(N)c2n1)c1ccc(C(=O)N[C@@H](CCC(=O)O)C(=O)O)cc1 [Methotrexate],–,Inactive,no effect,–
O=C1c2c(O)ccc(O)c2C(=O)c2c(NCCNCCO)ccc(NCCNCCO)c21 [Mitozantrone],–,Weak inducers,–,effect of BSO pre-treatment on luciferase activity [1]: did not change luciferase activity significantly
CC(=O)N[C@@H](CS)C(=O)O [NAC],–,–,–,repression of anticancer drug induction of luciferase activity [3]: nearly completely repressed
S=C(S)N1CCCC1 [PDTC],20 µM,–,–,–
CC(=O)O[C@H]1C(=O)[C@@]2(C)[C@H]([C@H](OC(=O)c3ccccc3)[C@]3(O)C[C@H](OC(=O)[C@H](O)[C@@H](NC(=O)c4ccccc4)c4ccccc4)C(C)=C1C3(C)C)[C@]1(OC(C)=O)CO[C@@H]1C[C@@H]2O [Paclitaxol],–,Inactive,no effect,–
S=P(N1CC1)(N1CC1)N1CC1 [Thiotepa],–,Inactive,no effect,–
CS(=O)(=O)OCCCCOS(C)(=O)=O [busulphan],–,–,–,"induction of ARE-driven luciferase activity ([1]; previously determined non-toxic concentration, 24 hours): 3.1 fold"

# Reference: patent US20120309087A1, “CANCER THERAPY” (University Court of The University of Dundee, priority 2006, published 2012)
